In brackets after ≈: the same amount, converted by molar mass. Where two headings read alike, the source gives them in different places. Marks after values point to notes of the source that are not given here.
Key:
[1] = lipid peroxidation inhibition assay; type: biochemical; conditions: for LPA, lipid peroxidation inhibition activity: (caffeic acid IC50/sample IC50) × 1000, average ± S.D., text prints mg caffeic acid/g
Source text: The previously described method was used to investigate the lipid peroxidation inhibition potency. […] The IC50 value was found as the effective sample concentration gave 50% reduction of optical density of initial solution. The value of lipid peroxidation inhibition (I) was found as a ratio of caffeic acid IC50 to sample IC50 [I = (IC50^Caffeic acid/ IC50^Sample) × 1000] and expressed as mg of caffeic acid in 1 g of sample. Values are expressed as mean obtained from five independent experiments.

[2] = cited from earlier work
[3] = set-up: method as in doi:10.1016/j.indcrop.2015.04.013; conditions: G. cruciata (Serbia) study; cited from earlier work
[4] = DPPH radical scavenging assay; type: biochemical; conditions: for DPPH, 2,2-diphenyl-1-picrylhydrazyl radical scavenging activity: (trolox IC50/sample IC50) × 1000, average ± S.D., text prints mg trolox/g
Description: The 2,2-diphenyl-1-picrylhydrazyl (DPPH) radical scavenging activity was performed as described earlier. […] The IC50 value was found as the effective concentration at which DPPH radicals were scavenged by 50%. The value of antioxidant activity (A^DPPH) against DPPH radicals was found as a ratio of trolox IC50 to sample IC50 [A^DPPH = (IC50^Trolox/ IC50^Sample) × 1000] and expressed as mg of trolox in 1 g of sample. Values are expressed as mean obtained from five independent experiments.

[5] = HPLC-DAD assay coupled with pre-chromatographic reaction with DPPH radicals; type: biochemical; conditions: peak in G. asclepiadea herb extract, HPLC-DAD 210 nm
Description: Scavenging activity against DPPH radicals of gentian herb extracts were medium to high and varied from 147.57 mg trolox/g for G. paradoxa to 580.71 mg trolox/g for G. asclepiadea (Table 3). Extracts of gentian roots were characterized by mostly low activity, with activity values <10 mg trolox/g. […] Figure 9a,b show chromatograms of G. asclepiadea herb extract before and after reaction with DPPH radical. […]. Additional phenolic groups such as 2,3-dihydroxybenzoyl in iridoid structures of gelidoside (rindoside) and trifloroside can increase the radical scavenging potential, but not much (20.82–25.14 mg trolox/g).
Figure 9 HPLC-DAD chromatograms (210 nm) of G. asclepiadea herb extract before (a) and after (b) pre-chromatographic reaction with DPPH radicals and G. gelida roots extract before (c) and after (d) pre-chromatographic reaction with DPPH radicals. Zone of compounds numbered as follows: i—loganic acid; ii—swertiamarin; iii—isoorientin-2″-O-glucoside; iv—gentiopicroside; v—mangiferin; vi—isovitexin-2″-O-glucoside; vii—isoorientin; viii—saponarin; ix—isovitexin; x—luteolin-7-O-glucoside; xi—apigenin-7-O-glucoside; xii—gentiopicroside-6″-O-glucoside; xiii—gelidoside (rindoside); xiv—trifloroside. […] TEXT PRINTED IN THE PICTURE: (b) i: 3% | (b) iii: 72% | (b) iv: 5% | (b) v: 98% | (b) vii: 85% | (b) xi: 11% | (d) iv: 5% | (d) xiii: 8% | (d) xiv: 5% DOUBTS OF THE COPYIST ABOUT THIS PICTURE: The picture prints no measure with the percentages; only the bare % values are copied. / Panel d, 8% (arrow): taken as peak xiii, with 5% taken as xiv; peaks xiii and xiv lie close together, so the assignment is not fully certain. / Panel b, 98% (arrow): taken as peak v, which lies on the shoulder of iv. / The percentages are printed under traces (b) and (d) but compare (a) with (b) and (c) with (d), so the panel choice is uncertain.

[6] = molecular target: T1, α-glucosidase from Saccharomyces cerevisiae (Saccharomyces cerevisiae, UniProt P53341); experiment: α-glucosidase inhibiting potential, spectrophotometric assay; type: biochemical; conditions: (acarbose IC50/sample IC50) × 1000; average ± S.D.; text prints mg acarbose/g
T1 construct: purchased Sigma-Aldrich G5003
Description: (§1) The α-amylase inhibiting potential and α-glucosidase inhibiting potential were performed using spectrophotometric assays. The α-amylase from Aspergillus oryzae (3 U/mL) and α-glucosidase from Saccharomyces cerevisae (0.5 U/mL) were used as […]. […] Values are expressed as mean obtained from six independent experiments.

[7] = molecular target: T2, α-amylase from Aspergillus oryzae (Aspergillus oryzae, UniProt P0C1B3); experiment: α-amylase inhibiting potential, spectrophotometric assay; type: biochemical; conditions: (acarbose IC50/sample IC50) × 1000, average ± S.D., text prints mg acarbose/g
T2 construct: purchased Sigma-Aldrich 10065
Description: as §1

[8] = superoxide anion radical scavenging assay; type: biochemical; conditions: for O2^-, superoxide anion-radical scavenging activity: (quercetin IC50/sample IC50) × 1000, average ± S.D., text prints mg quercetin/g
Source text: The known assay was used to determine superoxide anion radical scavenging activity. […] The IC50 value was found as the effective concentration at which superoxide anion radicals were scavenged by 50%. The value of antioxidant activity (A^O2•) against superoxide anion radicals was found as a ratio of quercetin IC50 to sample IC50 [A^O2• = (IC50^Quercetin/ IC50^Sample) × 1000] and expressed as mg of quercetin in 1 g of sample. Values are expressed as mean obtained from five independent experiments.

[9] = set-up: method as in doi:10.1016/j.indcrop.2015.04.013; conditions: cited from earlier work

T1 sequence (P53341 whole entry): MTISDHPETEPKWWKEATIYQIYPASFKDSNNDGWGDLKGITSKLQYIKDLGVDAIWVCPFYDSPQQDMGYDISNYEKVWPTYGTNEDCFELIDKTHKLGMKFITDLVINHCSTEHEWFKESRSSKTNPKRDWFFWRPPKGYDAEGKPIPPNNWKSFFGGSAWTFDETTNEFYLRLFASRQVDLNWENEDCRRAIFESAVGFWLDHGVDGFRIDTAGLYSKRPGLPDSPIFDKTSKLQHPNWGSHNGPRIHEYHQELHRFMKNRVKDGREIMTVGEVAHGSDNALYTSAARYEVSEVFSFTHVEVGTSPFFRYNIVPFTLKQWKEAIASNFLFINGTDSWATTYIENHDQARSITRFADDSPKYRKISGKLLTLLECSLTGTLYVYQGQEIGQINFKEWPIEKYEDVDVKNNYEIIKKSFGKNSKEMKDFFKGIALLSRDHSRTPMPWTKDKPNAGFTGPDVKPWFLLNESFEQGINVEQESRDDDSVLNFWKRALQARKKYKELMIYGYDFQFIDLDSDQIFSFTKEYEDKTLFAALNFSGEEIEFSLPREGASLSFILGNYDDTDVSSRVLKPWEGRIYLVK

Structure (SMILES)	percentage of peak area reduction after pre-chromatographic reaction with DPPH radicals [5]	αGIP, α-glycosidase inhibitory potential [6]	αAIP, α-amylase inhibitory potential [7]	DPPH, 2,2-diphenyl-1-picrylhydrazyl radical scavenging activity [4]	LPA, lipid peroxidation inhibition activity [1]	O2^-, superoxide anion-radical scavenging activity [8]	further results
O=C(O)/C=C/c1ccc(O)c(O)c1 [Caffeic acid, caffeic acid, reference compound]							IC50, lipid peroxidation inhibition ([1]; positive control): 58.96 ± 1.14 µg/mL (≈ 327 µM)
O=C1O[C@H]([C@@H](O)CO)C(O)=C1O [ascorbic acid]							IC50 in the DPPH assay ([2]; Serbian species G. asclepiadea study): 5.23 µg/mL (≈ 29.7 µM); IC50 in the DPPH assay ([2]; Serbian species G. cruciata study): 6.05 µg/mL (≈ 34.4 µM)
O=C(O)c1cc(O)c(O)c(O)c1 [gallic acid]							superoxide scavenging potential (IC50) [3]: 360 µg/mL
Cc1c(C)c2c(c(C)c1O)CCC(C)(C(=O)O)O2 (stereo not drawn) [trolox, reference compound]							IC50, DPPH radicals scavenged by 50% ([4]; positive control): 11.62 ± 0.23 µg/mL (≈ 46.4 µM)
O=c1cc(-c2ccc(O)c(O)c2)oc2cc(O)c([C@@H]3O[C@H](CO)[C@@H](O)[C@H](O)[C@H]3O)c(O)c12 [Isoorientin, Luteolin-6-C-Glc (isoorientin)]	72–98%	811.10 ± 32.44 ^xxxvi mg of acarbose per g of dry extract weight	1242.03 ± 44.71 ^xxviii mg of acarbose per g of dry extract weight				
C=C[C@@H]1C2=CCOC(=O)C2=CO[C@H]1O[C@@H]1O[C@H](CO)[C@@H](O)[C@H](O)[C@H]1O [Gentiopicroside]	3–5%	< 10.00 mg of acarbose per g of dry extract weight	< 10.00 mg of acarbose per g of dry extract weight	< 10.00 mg of trolox per g of dry extract weight	< 10.00 mg of caffeic acid per g of dry extract weight	< 10.00 mg of quercetin per g of dry extract weight	DPPH, 2,2-diphenyl-1-picrylhydrazyl radical scavenging activity ([4]; listed as gentiopicroside): < 10 mg of trolox per g of dry extr
O=c1c2cc(O)c(O)cc2oc2cc(O)c([C@@H]3O[C@H](CO)[C@@H](O)[C@H](O)[C@H]3O)c(O)c12 [Mangiferin]	72–98%	1562.84 ± 62.48 ^xxxvii mg of acarbose per g of dry extract weight	296.14 ± 10.36 ^xxiv mg of acarbose per g of dry extract weight	3824.20 ± 76.48 ^viii mg of trolox per g of dry extract weight	522.14 ± 20.85 ^xx mg of caffeic acid per g of dry extract weight	927.07 ± 18.54 ^xiv mg of quercetin per g of dry extract weight	DPPH, 2,2-diphenyl-1-picrylhydrazyl radical scavenging activity ([4]; listed as mangiferin): 3824.20 mg of trolox per g of dry extr; LPA, lipid peroxidation inhibition activity ([1]; listed as mangiferin): 522.14 mg of caffeic acid per g of dr; O2^-, superoxide anion-radical scavenging activity ([8]; listed as mangiferin): 927.07 mg of quercetin per g of dry e
C[C@@H]1[C@H]2[C@H](O[C@@H]3O[C@H](CO)[C@@H](O)[C@H](O)[C@H]3O)OC=C(C(=O)O)[C@H]2C[C@@H]1O [Loganic Acid, Loganic acid]	3–5%	< 10.00 mg of acarbose per g of dry extract weight	< 10.00 mg of acarbose per g of dry extract weight	< 10.00 mg of trolox per g of dry extract weight	< 10.00 mg of caffeic acid per g of dry extract weight	< 10.00 mg of quercetin per g of dry extract weight	DPPH, 2,2-diphenyl-1-picrylhydrazyl radical scavenging activity ([4]; listed as loganic acid): < 10 mg of trolox per g of dry extr
O=c1cc(-c2ccc(O)cc2)oc2cc(O)c([C@@H]3O[C@H](CO)[C@@H](O)[C@H](O)[C@H]3O)c(O)c12 [Isovitexin]			108.35 ± 3.79 ^xxii mg of acarbose per g of dry extract weight	425.11 ± 8.50 ^v mg of trolox per g of dry extract weight	96.54 ± 3.73 ^xvii mg of caffeic acid per g of dry extract weight	211.63 ± 4.20 ^xii mg of quercetin per g of dry extract weight	αAIP, α-amylase inhibitory potential ([7]; listed as isovitexin): medium
Cc1cc(C(C)(C)C)c(O)c(C(C)(C)C)c1 [butylated hydroxytoluene]							IC50, inhibitory activity toward lipid peroxidation [9]: 1.00 µg/mL (≈ 4.54 µM)
O=c1cc(-c2ccc(O)c(O)c2)oc2cc(O)c([C@@H]3O[C@H](CO)[C@@H](O)[C@H](O)[C@H]3O[C@@H]3O[C@H](CO)[C@@H](O)[C@H](O)[C@H]3O)c(O)c12 [isoorientin-2″-O-glucoside, Isoorientin-2″-O-Glc]	72–98%						
O=c1c(O)c(-c2ccc(O)c(O)c2)oc2cc(O)cc(O)c12 [Quercetin, quercetin, reference compound]							IC50, superoxide anion radicals scavenged by 50% ([8]; positive control): 21.74 ± 0.42 µg/mL (≈ 71.9 µM)

Source: publication PMC6918269, “Caucasian Gentiana Species: Untargeted LC-MS Metabolic Profiling, Antioxidant and Digestive Enzyme Inhibiting Activity of Six Plants” (Metabolites, 2019)
